Assay results reported in US9856237B2, “Pyrazine derivatives” (TEIJIN PHARMA LIMITED, priority 2014, dated 2018).

Columns and labels:
human URAT1 = biological target: T1, human URAT1 (Homo sapiens, UniProt Q96S37); test: Test for inhibition of uric acid transport using human URAT1-expressing cells; type: cell-based; conditions: HEK 293 cells expressing human URAT1; 14C-labeled uric acid 25 μM; uptake 37° C. for 5 min; read-out: Inhibitory activity (IC50, concentration at which the uric acid transport rate is inhibited by 50%)
T1 construct: Full-length cDNA of human URAT1 (hURAT1); host or cells: HEK 293 cells, stably transfected and selected by Geneticin resistance
T1 sequence (Q96S37 1-553): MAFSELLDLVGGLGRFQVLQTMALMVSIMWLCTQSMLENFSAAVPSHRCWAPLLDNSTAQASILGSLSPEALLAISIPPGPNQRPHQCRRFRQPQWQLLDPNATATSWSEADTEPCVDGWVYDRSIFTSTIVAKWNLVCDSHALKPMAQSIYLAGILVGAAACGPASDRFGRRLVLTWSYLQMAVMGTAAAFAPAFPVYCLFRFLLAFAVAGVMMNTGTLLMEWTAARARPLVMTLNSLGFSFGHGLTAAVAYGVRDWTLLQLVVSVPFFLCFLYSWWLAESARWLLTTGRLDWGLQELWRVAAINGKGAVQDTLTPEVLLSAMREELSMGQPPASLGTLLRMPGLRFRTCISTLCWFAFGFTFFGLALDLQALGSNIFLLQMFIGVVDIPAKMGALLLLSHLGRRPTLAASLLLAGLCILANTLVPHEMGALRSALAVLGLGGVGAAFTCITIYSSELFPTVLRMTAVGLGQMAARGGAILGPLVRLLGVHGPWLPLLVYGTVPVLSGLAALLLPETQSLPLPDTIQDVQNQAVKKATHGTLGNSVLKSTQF
Experimental: Test for Inhibition of Uric Acid Transport Using Human URAT1-Expressing Cells
A test compound was dissolved in DMSO (produced by Sigma) to a concentration of 20 mM and was subsequently used by adjusting the concentration to a desired value for use.
Full-length cDNA of human URAT1 (hURAT1) (produced by OriGene Technologies, Inc., NCBI Reference Sequence: NM-144585) was subcloned into an expression vector, pCMV6-Kan/Neo (produced by OriGene Technologies, Inc.), and human URAT1 genes were transfected into human embryonic kidney-derived cells (HEK 293 cells) by a liposome method using Lipofectamine 2000 (produced by Invitrogen Corporation), whereupon HEK 293 cells expressing human URAT1 genes were selected on the basis of Geneticin resistance. Functional expression of human URAT1 genes was confirmed by using transport of ^14C-labeled uric acid into the cells as an index.
The HEK 293 cells expressing human URAT1 were seeded in a 24-well cell culture dish to a density of 3×10^5 cells/mL/well and were cultured in Dulbecco's modified Eagle's medium (D-MEM medium) containing 10% fetal bovine serum at 37° C. for 2 days. Thereafter, the following test for inhibition of uric acid transport was performed.
After the medium was removed by aspiration from each well, the cells were replaced with a solution obtained by substituting NaCl in Hanks' Balanced Salt Solution (HBSS) with Na gluconate (hereinafter, HBSS/Na-gluconate), and the cells were preincubated at 37° C. for about 10 minutes. After removing the HBSS/Na-gluconate by aspiration, a ^14C-uric acid solution containing various concentrations of the Example compound listed in Table 4 and a radioactive ligand (^14C-labeled uric acid; final concentration 25 μM) was added, and an uptake reaction was carried out by incubating at 37° C. for 5 min. After the reaction, the ^14C-labeled uric acid was removed by aspiration and the cells were washed three times with ice-cooled HBSS. The HEK 293 cells expressing human URAT1 were lysed in a 0.2 mol/L aqueous NaOH solution (hereafter, the cell sample) and sampled from the well. The cell sample and a liquid scintillation cocktail, ULTIMA GOLD (produced by PerkinElmer, Inc.) were mixed, and the radioactivity was measured by a liquid scintillation counter (manufactured by Beckman Coulter, Inc.).
The uric acid transport rate of the Example compound at each concentration (% of control uptake) was calculated relative to the radioactivity (radioactivity in human URAT1 expressing HEK 293 cells without addition of the Example compound (DMSO addition)) showing URAT1-specific uric acid transport as 100%, and the concentration (IC50) of the Example compound at which the uric acid transport rate is inhibited by 50% was determined. In addition, the symbols (*, **, and ***) in the table represent the following inhibitory activity values: • IC50≦0.2 μM: *** • 0.2 μM<IC50≦2 μM: ** • 2 μM<IC50≦20 μM: *

cebus apella = test: Testing drug efficacy in Cebus apella (uric acid excretion rate); type: in vivo; conditions: 3 mg/kg to 30 mg/kg in 0.5% methylcellulose, from the nasal cavity to the stomach
Experimental: Testing Drug Efficacy in Cebus Apella A test compound (3 mg/kg to 30 mg/kg) dispersed in a 0.5% methylcellulose solution was administered to cebus apella from the nasal cavity to the stomach using a disposable catheter and a syringe barrel. Blood samples were taken before administration and 30 minutes, 1 hour, 2 hours, 4 hours, 8 hours, 12 hours, and 24 hours after administration; and urine samples were collected for the time intervals of from immediately after to 4 hours after administration, from 4 hours to 8 hours after administration, from 8 hours to 16 hours after administration, and from 16 hours to 24 hours after administration. Concentrations of uric acid and creatinine in the blood and urine samples collected were measured by an automatic analyzer (JEOL Ltd.). Uric acid and creatinine were measured respectively using L-type Wako UA•F (Wako Pure Chemicals Industries, Ltd.) and L-type Creatinine F (Wako Pure Chemicals Industries, Ltd.). Uric acid clearance was calculated from the uric acid concentrations in blood and urine and, similarly, creatinine clearance was calculated from the creatinine concentrations. Based on these values, the uric acid excretion rate was determined according to the following equation: Uric acid excretion rate (%)=(uric acid clearance/creatinine clearance)×100

`CCOc1cncc(-c2nc(C)c(C(=O)O)n2Cc2cc(Cl)ccc2Cl)n1` [Compound A7, 1-(2,5-dichlorobenzyl)-2-(6-ethoxypyrazin-2-yl)-4-methyl-1H-imidazole-5-carboxylic acid] gave an IC50 (human URAT1) of at most 200 nM.
`Cc1nc(-c2cncc(Oc3ccccc3)n2)n(Cc2cc(Cl)ccc2Cl)c1C(=O)O` [Compound A6, 1-(2,5-dichlorobenzyl)-4-methyl-2-(6-phenoxypyrazin-2-yl)-1H-imidazole-5-carboxylic acid] showed an IC50 (human URAT1) of at most 200 nM.
`O=C(O)c1ccc(-c2cnccn2)n1Cc1cc(Cl)ccc1Cl` [Compound A15, 1-(2,5-dichlorobenzyl)-2-(pyrazin-2-yl)-1H-pyrrole-5-carboxylic acid] showed an IC50 (human URAT1) of at most 200 nM.
In the case of `COc1cccc(F)c1Oc1cncc(-c2nc(C)c(C(=O)O)n2Cc2cc(Cl)ccc2Cl)n1` [Compound A13], the IC50 (human URAT1) is reported as 200 to 2000 nM.
`Cc1nc(-c2cnccn2)n(Cc2cc(Cl)ccc2Cl)c1C(=O)O` [Compound A1, 1-(2,5-dichlorobenzyl)-4-methyl-2-(pyrazin-2-yl)-1H-imidazole-5-carboxylic acid] was tested, and the IC50 (human URAT1) was at most 200 nM.
With `Cc1nc(-c2cncc(-c3ccccc3)n2)n(Cc2cc(Cl)ccc2Cl)c1C(=O)O` [Compound A4, 1-(2,5-dichlorobenzyl)-4-methyl-2-(6-phenylpyrazin-2-yl)-1H-imidazole-5-carboxylic acid] the IC50 (human URAT1) was at most 200 nM.
For `Cc1nc(-c2cncc(C#N)n2)n(Cc2cc(Cl)ccc2Cl)c1C(=O)O` [Compound A8, 2-(6-cyanopyrazin-2-yl)-1-(2,5-dichlorobenzyl)-4-methyl-1H-imidazole-5-carboxylic acid], the IC50 (human URAT1) was at most 200 nM.
`Cc1cncc(-c2nc(C)c(C(=O)O)n2Cc2cc(Cl)sc2Cl)n1` [Compound A12, 1-((2,5-dichlorothiophene-3-yl)methyl)-4-methyl-2-(6-methylpyrazin-2-yl)-1H-imidazole-5-carboxylic acid] showed an IC50 (human URAT1) of at most 200 nM.
With `CCc1cncc(-c2nc(C)c(C(=O)O)n2Cc2cc(Cl)ccc2Cl)n1` [Compound A3, 1-(2,5-dichlorobenzyl)-2-(6-ethylpyrazin-2-yl)-4-methyl-1H-imidazole-5-carboxylic acid] the IC50 (human URAT1) was at most 200 nM.
With `Cc1nc(-c2cnccn2)n(Cc2cc(Cl)sc2Cl)c1C(=O)O` [Compound A11, 1-((2,5-dichlorothiophene-3-yl)methyl)-4-methyl-2-(pyrazin-2-yl)-1H-imidazole-5-carboxylic acid] the “activity to promote uric acid excretion” value (cebus apella) was “excellent activity” and the IC50 (human URAT1) was at most 200 nM.
`Cc1cncc(-c2nc(C)c(C(=O)O)n2Cc2cc(Cl)ccc2Cl)n1` [Compound A2, 1-(2,5-dichlorobenzyl)-4-methyl-2-(6-methylpyrazin-2-yl)-1H-imidazole-5-carboxylic acid] showed an IC50 (human URAT1) of at most 200 nM.
`COc1cccc(F)c1Oc1cncc(-c2nc(C)c(C(=O)O)n2Cc2ccccc2)n1` [Compound A14, 1-benzyl-2-(6-(2-fluoro-6-methoxyphenoxy)pyrazin-2-yl)-4-methyl-1H-imidazole-5-carboxylic acid] gave an IC50 (human URAT1) of at most 200 nM.
Work on `Cc1nc(-c2cncc(C3CC3)n2)n(Cc2cc(Cl)ccc2Cl)c1C(=O)O` [Compound A10, 2-(6-cyclopropylpyrazin-2-yl)-1-(2,5-dichlorobenzyl)-4-methyl-1H-imidazole-5-carboxylic acid] yielded an IC50 (human URAT1) of at most 200 nM.
`COc1cncc(-c2nc(C)c(C(=O)O)n2Cc2cc(Cl)ccc2Cl)n1` [Compound A5, 1-(2,5-dichlorobenzyl)-2-(6-methoxypyrazin-2-yl)-4-methyl-1H-imidazole-5-carboxylic acid] showed an IC50 (human URAT1) of at most 200 nM.
`Cc1nc(-c2cncc(C(C)C)n2)n(Cc2cc(Cl)ccc2Cl)c1C(=O)O` [Compound A9, 1-(2,5-dichlorobenzyl)-2-(6-isopropylpyrazin-2-yl)-4-methyl-1H-imidazole-5-carboxylic acid] was tested, and the IC50 (human URAT1) was at most 200 nM.
